From patent publication US20090196826A1, “COMPOSITIONS AND METHODS OF MAKING NON-SPHERICAL MICRO- AND NANO-PARTICLES” (BOARD OF REGENTS, THE UNIVERSITY OF TEXAS SYSTEM, priority 2007, published 2009)

Tested on: subcutaneous A549 lung tumor xenograft
Assay: antitumor efficacy in subcutaneous A549 lung tumor xenograft (caliper)
Format: in vivo, mice
Details: equivalent DOX dose 4 mg/kg i.v. at day 0, 2, 5 and 10
Experimental: In a separate study, we have systematically investigated the antitumor efficacy of cRGD-encoded micelles in a subcutaneous A549 lung tumor xenograft study. Tumor size was measured by a caliper and normalized to that at day 0 before treatment. In this study, animals were treated with an equivalent DOX dose at 4 mg/kg for free drug, 0 and 16% cRGD-DOX-SPIO micelles, and coadministration of 16% cRGD-DOX-SPIO micelles with free cRGD peptides ([…]). Free drug or drug-encapsulated micelles were injected i.v. (bolus) into the tail vein at day 0, 2, 5 and 10. The control group was injected with phosphate buffer saline (PBS). Three animals were used for each sample group.

## COc1cccc2c1C(=O)c1c(O)c3c(c(O)c1C2=O)C[C@@](O)(C(=O)CO)C[C@@H]3O[C@H]1C[C@H](N)[C@H](O)[C@H](C)O1 [free DOX, doxorubicin]
  tumor size change: did not change dramatically
